# Assay results taken from patent US11478460B2, “Diaryl substituted 6,5-fused ring compounds as C5aR inhibitors” (CHEMOCENTRYX, INC., priority 2017, dated 2022).
# Target: C5aR (Homo sapiens (Human), UniProt P21730)
# Test: Chemotaxis assay using U937 cells (C5aR mediated migration)
# Type: cell-based
# Settings: read-out: Mig IC50
# Method: U937 cells are a monocytic cell line which express C5aR, and are available from ATCC (VA). These cells were cultured as a suspension in RPMI-1640 medium supplemented with 2 mM L-glutamine, 1.5 g/L sodium bicarbonate, 4.5 g/L glucose, 10 mM HEPES, 1 mM sodium pyruvate, and 10% FBS. Cells were grown under 5% CO2/95% air, 100% humidity at 37° C. and subcultured twice weekly at 1:6 (cells were cultured at a density range of 1×10^5 to 2×10^6 cells/mL) and harvested at 1×10^6 cells/mL. Prior to assay, cells are treated overnight with 0.5 mM of cyclic AMP (Sigma, OH) and washed once prior to use. cAMP treated U937 cells can be used in C5aR ligand binding and functional assays.
# Optionally, compounds may be further assayed for their ability to inhibit chemotaxis in cells. Chemotaxis assays are performed using 5 μm pore polycarbonate, polyvinylpyrrolidone-coated filters in 96-well chemotaxis chambers (Neuroprobe; Gaithersburg, Md.) using chemotaxis buffer (Hank's balanced salt solution (HBSS) and 1% FBS). C5aR ligands (i.e., C5a, R&D Systems; Minneapolis, Minn.) are use to evaluate compound mediated inhibition of C5aR mediated migration. Other chemokines (i.e., SDF-1α; R&D Systems; Minneapolis, Minn.) are used as specificity controls. The lower chamber is loaded with 29 μl of chemokine (i.e., 0.03 nM C5a) and varying amounts of compound; the top chamber contains 100,000 U937 or neutrophil cells in 20 μl. The chambers are incubated 1.5 hours at 37° C., and the number of cells in the lower chamber quantified either by direct cell counts in five high powered fields per well or by the CyQuant assay (Molecular Probes), a fluorescent dye method that measures nucleic acid content and microscopic observation.
# The compounds in Table 1, below, were prepared using the methods described above. Characterization data is provided for each compound listed. Activity is provided as follows for the chemotaxis assay using U937 cells as described herein (Example 12): +, 500 nM<IC50; ++, 50 nM<IC50≤500 nM; +++, 5 nM<IC50≤50 nM; and ++++, IC50≤5 nM.
# C5aR, sequence (P21730 whole entry): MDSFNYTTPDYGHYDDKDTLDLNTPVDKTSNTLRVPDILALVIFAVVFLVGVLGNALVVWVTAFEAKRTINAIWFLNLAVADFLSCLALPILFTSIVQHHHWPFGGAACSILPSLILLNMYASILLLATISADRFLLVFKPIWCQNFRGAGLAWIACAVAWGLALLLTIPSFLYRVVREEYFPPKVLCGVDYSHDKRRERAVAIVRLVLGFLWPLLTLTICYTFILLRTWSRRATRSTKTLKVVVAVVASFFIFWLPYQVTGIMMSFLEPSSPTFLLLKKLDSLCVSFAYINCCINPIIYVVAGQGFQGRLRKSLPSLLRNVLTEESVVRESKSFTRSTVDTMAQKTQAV
row,SMILES,IC50 [nM]
1,Cc1cccc(OCC(C)C)c1-n1nc2c(c1-c1ccc(NC(N)=O)cc1)CN(c1ccc(Cl)cc1C(F)(F)F)CC2 [Example 1.317],≤ 5
2,Cc1cnc(N2CCc3nn(-c4c(C)cccc4OCC(C)C)c(-c4ccc(NC(N)=O)c(F)c4)c3C2)c(C(F)(F)F)c1 [Example 1.240],≤ 5
3,Cc1cccc(OCC(C)C)c1-n1nc2c(c1-c1ccc(NC(N)=O)c(F)c1)CN(c1ccc(C(F)(F)F)cc1Cl)CC2 [Example 1.241],≤ 5
4,Cc1cccc(OCC(C)C)c1-n1nc2c(c1-c1ccc(NC(N)=O)cc1)CN(CC(C)C)CC2 [Example 1.385],50 to 500
5,CCc1cccc(CC)c1-n1nc2c(c1-c1cc(F)c(NC(N)=O)cc1C)CN(C(C)c1ccccc1C(F)(F)F)CC2 (stereo not drawn) [Example 1.197],≤ 5
6,Cc1cccc(OCC(C)C)c1-n1nc2c(c1-c1ccc(NC(N)=O)cc1)CN(c1ncc(C(F)(F)F)cc1F)CC2 [Example 1.374],5 to 50
7,CCc1cccc(CC)c1-n1nc2c(c1-c1cc(F)c(NC(N)=O)cc1F)CN(Cc1cn(C)nc1C(F)(F)F)CC2 [Example 1.075],5 to 50
8,Cc1cccc(OCC(C)C)c1-n1nc2c(c1-c1cc(F)c(NC(N)=O)cc1F)CN(c1ncc(C(F)(F)F)cn1)CC2 [Example 1.164],≤ 5
9,Cc1cccc(C)c1-n1nc2c(c1-c1ccc(NC(C)C)cc1)CN(c1ccccc1C(C)C)CC2 [Example 1.477],50 to 500
10,Cc1cnc(N2CCc3nn(-c4c(C)cccc4OCC(C)C)c(-c4cc(F)c(NC(N)=O)cc4F)c3C2)c(Cl)c1 [Example 1.190],≤ 5
11,Cc1cccc(OCC(C)C)c1-n1nc2c(c1-c1ccc(NC(N)=O)cc1)CN(C(=O)c1ccccc1)CC2 [Example 1.431],50 to 500
12,CCc1cccc(CC)c1-n1nc2c(c1-c1cc(F)c(NC(N)=O)cc1F)CN(Cc1cc(Cl)ccc1C(F)(F)F)C(C)(C)C2 [Example 1.031],≤ 5
13,COc1cccc(C)c1-n1nc2c(c1-c1ccc(N(C)C)cc1)CN(c1ccccc1C)CC2 [Example 1.487],> 500
14,CCc1cccc(CC)c1-n1nc2c(c1-c1ccc(NC(N)=O)c(F)c1)CN(CC(C)(C)C)CC2 [Example 1.253],≤ 5
15,Cc1cccc(OCC(C)C)c1-n1nc2c(c1-c1ccc(NC(N)=O)cc1)CN(Cc1ccc(Cl)cc1F)CC2 [Example 1.323],≤ 5
16,CCc1cccc(CC)c1-n1nc2c(c1-c1cc(F)c(NC(N)=O)cc1F)CN(Cc1ccc(C(F)(F)F)cc1F)CC2 [Example 1.066],≤ 5

row,SMILES,IC50 [nM]
1,Cc1ccc(C(C)(C)C)cc1N1CCc2nn(-c3c(C)cccc3C(C)C)c(-c3ccc(NC(N)=O)cc3)c2C1 [Example 1.388],5 to 50
2,Cc1cc(NC(N)=O)c(F)cc1-c1c2c(nn1-c1c(C)cccc1OCC(C)C)CCN(c1ncc(C(C)C)cc1F)C2 [Example 1.129],≤ 5
3,Cc1cccc(C)c1-n1nc2c(c1-c1cc(F)c(NC(N)=O)cc1F)CN(c1ccc(Cl)cc1F)CC2 [Example 1.107],≤ 5
4,Cc1cccc(C)c1-n1nc2c(c1-c1cc(F)c(NC(N)=O)cc1F)CN(C(CC(C)(C)O)c1ccccc1)CC2 (stereo not drawn) [Example 1.071],5 to 50
5,Cc1cccc(OCC(C)C)c1-n1nc2c(c1-c1cc(F)c(NC(N)=O)cc1F)CN(c1ncc(C(C)C)cn1)CC2 [Example 1.166],≤ 5
6,Cc1cccc(OCC(C)C)c1-n1nc2c(c1-c1cc(F)c(NC(N)=O)cc1F)CN(c1ccc(Cl)cn1)CC2 [Example 1.182],≤ 5
7,Cc1cccc(OCC(C)C)c1-n1nc2c(c1-c1ccc(NC(N)=O)c(F)c1)CN(c1ncc(Cl)cc1Cl)CC2 [Example 1.252],≤ 5
8,Cc1cccc(OCC(C)C)c1-n1nc2c(c1-c1ccc(C(N)=O)cc1)CN(c1ccccc1C(C)(C)C)CC2 [Example 1.453],5 to 50
9,Cc1cccc(OCC(C)C)c1-n1nc2c(c1-c1ccc(C(C)(C)O)cc1)CN(c1ccccc1C(C)(C)C)CC2 [Example 1.449],> 500
10,Cc1ccc(C(C)(C)C)cc1N1CCc2nn(-c3c(C)cccc3C)c(-c3ccc(NC(N)=O)cc3)c2C1 [Example 1.442],5 to 50
11,COC(=O)CC(c1ccccc1)N1CCc2nn(-c3c(C)cccc3C)c(-c3cc(F)c(NC(N)=O)cc3F)c2C1 (stereo not drawn) [Example 1.074],≤ 5
12,COc1cccc(C)c1-n1nc2c(c1-c1ccc(NC(=O)NC(C)(C)C)cc1)CN(c1ccccc1C)CC2 [Example 1.488],> 500
13,Cc1cccc(OCC(C)C)c1-n1nc2c(c1-c1ccc(NC(N)=O)cc1)CN(Cc1c(Cl)cc(C(F)(F)F)cc1C(F)(F)F)CC2 [Example 1.332],≤ 5
14,COc1cccc(C)c1-n1nc2c(c1-c1ccc(N)cc1)CN(c1ccccc1C(C)(C)C)CC2 [Example 1.459],5 to 50
15,CCc1cccc(CC)c1-n1nc2c(c1-c1cc(F)c(NC(N)=O)cc1F)CN(Cc1ccc(C(F)(F)F)cc1C(F)(F)F)C(C)(C)C2 [Example 1.059],≤ 5
16,CCc1cccc(CC)c1-n1nc2c(c1-c1cc(F)c(NC(N)=O)cc1F)CN(Cc1ccc(Cl)cc1C(F)(F)F)[C@@H](C)C2 [Example 1.015],≤ 5

# Now from value to compound:
row,IC50 [nM],SMILES
1,≤ 5,Cc1cccc(C)c1-n1nc2c(c1-c1cc(F)c(NC(N)=O)cc1F)CN(c1cc(C(F)(F)F)ccc1F)CC2 [Example 1.094]
2,5 to 50,Cc1cccc(OCC(C)C)c1-n1nc2c(c1-c1ccc(NC(N)=O)cc1)CN(CC(C(F)(F)F)C(F)(F)F)CC2 [Example 1.346]
3,≤ 5,Cc1cccc(OCC(C)C)c1-n1nc2c(c1-c1ccc(NC(N)=O)c(F)c1)CN(c1ncc(C(C)C)cc1F)CC2 [Example 1.218]
4,≤ 5,Cc1cccc(C)c1-n1nc2c(c1-c1cc(F)c(NC(N)=O)cc1F)CN(c1ccccc1Cl)CC2 [Example 1.103]
5,5 to 50,CCc1cccc(CC)c1-n1nc2c(c1-c1cc(F)c(NC(N)=O)cc1F)CN(C(=O)C1CCOCC1)C(C)(C)C2 [Example 1.029]
6,≤ 5,Cc1cnc(N2CCc3nn(-c4c(C)cccc4OCC(C)C)c(-c4ccc(NC(N)=O)c(F)c4)c3C2)c(F)c1 [Example 1.224]
7,5 to 50,Cc1cc(C(F)(F)F)ccc1CN1CCc2nn(-c3c(C)cccc3OCC(C)C)c(-c3ccc(NC(N)=O)cc3)c2C1 [Example 1.384]
8,≤ 5,CCc1cccc(CC)c1-n1nc2c(c1-c1cc(F)c(NC(N)=O)cc1F)CN(Cc1ccc(C)cc1C(F)(F)F)CC2 [Example 1.034]
9,50 to 500,COc1cccc(C)c1-n1nc2c(c1-c1ccc(NC(N)=O)cc1)CN(c1ncccc1C)CC2 [Example 1.408]
10,5 to 50,Cc1cccc(OCC(C)C)c1-n1nc2c(c1-c1ccc(NC(N)=O)c(F)c1)CN(c1nc(Cl)ns1)CC2 [Example 1.246]
11,> 500,COc1cccc(C)c1-n1nc2c(c1-c1ccc(NC(C)C)cc1)CN(c1ccccc1C)CC2 [Example 1.489]
12,≤ 5,Cc1cccc(OCC(C)C)c1-n1nc2c(c1-c1ccc(NC(N)=O)c(F)c1)CN(c1ncc(C(F)(F)F)cc1F)CC2 [Example 1.288]
13,50 to 500,Cc1cccc(C)c1-n1nc2c(c1-c1ccc(CO)cc1)CN(c1ccccc1C(C)C)CC2 [Example 1.467]
14,≤ 5,Cc1cccc(OCC(C)C)c1-n1nc2c(c1-c1ccc(NC(N)=O)cc1)CN(CC(C)(C(F)(F)F)C(F)(F)F)CC2 [Example 1.344]
15,≤ 5,CCc1cccc(CC)c1-n1nc2c(c1-c1cc(F)c(NC(N)=O)cc1F)CN(Cc1c(F)cc(C(F)(F)F)cc1C(F)(F)F)CC2 [Example 1.062]
16,> 500,Cc1ccc(C(C)(C)C)cc1N1CCc2nn(-c3c(C)cccc3C)c(-c3ccc(OC(C)C)cc3)c2C1 [Example 1.446]
17,5 to 50,COc1cccc(C)c1-n1nc2c(c1-c1ccc(NC(N)=O)cc1)CN(c1ccccc1C(C)C)CC2 [Example 1.482]
18,≤ 5,Cc1cccc(OCC(C)C)c1-n1nc2c(c1-c1ccc(NC(N)=O)cc1)CN(Cc1c(C(F)(F)F)ccc(Cl)c1F)CC2 [Example 1.299]
19,≤ 5,CCc1cccc(CC)c1-n1nc2c(c1-c1ccc(NC(N)=O)c(F)c1)CN(c1ncc(Cl)cc1Cl)CC2 [Example 1.227]
20,5 to 50,Cc1cccc(OCC(C)C)c1-n1nc2c(c1-c1ccc(NC(N)=O)cc1)CN(Cc1c(F)cccc1F)CC2 [Example 1.356]
21,5 to 50,Cc1cccc(OCC(C)C)c1-n1nc2c(c1-c1ccc(N)cc1)CN(c1ccccc1C(C)C)CC2 [Example 1.480]
22,50 to 500,COc1ccc(-c2c3c(nn2-c2c(C)cccc2C)CCN(c2cc(C(C)(C)C)ccc2C)C3)cc1 [Example 1.472]
23,≤ 5,Cc1cccc(OCC(C)C)c1-n1nc2c(c1-c1ccc(NC(N)=O)cc1)CN(Cc1ccc(C(F)(F)F)cc1)CC2 [Example 1.345]
24,≤ 5,Cc1cccc(OCC(C)C)c1-n1nc2c(c1-c1ccc(NC(N)=O)c(F)c1)CN(c1ncc(F)cc1Cl)CC2 [Example 1.228]
25,≤ 5,Cc1ccc(C(F)(F)F)c(CN2CCc3nn(-c4c(C)cccc4OCC(C)C)c(-c4ccc(NC(N)=O)cc4)c3C2)c1 [Example 1.300]
